Results reported in US20150105252A1, “SUBSTITUTED PYRAZOLES AS HERBICIDES” (E I DU PONT DE NEMOURS AND COMPANY, priority 2013, published 2015).

How the values were obtained:
[1] = test system: barnyardgrass; assay: Test C postemergence; format: in vivo, Echinochloa crus-galli
Text: (§1) Seeds of plant species selected from blackgrass (Alopecurus myosuroides), ryegrass, Italian (Italian ryegrass, Lolium multiflorum), wheat (winter wheat, Triticum aestivum), galium (catchweed bedstraw, Galium aparine), corn (Zea mays), crabgrass, large (large crabgrass, Digitaria sanguinalis), foxtail, giant (giant foxtail, Setaria faberii), johnsongrass (Sorghum halepense), lambsquarters (Chenopodium album), morningglory (Ipomoea coccinea), nutsedge, yellow (yellow nutsedge, Cyperus esculentus), pigweed (redroot pigweed, Amaranthus retroflexus), ragweed (common ragweed, Ambrosia elation), soybean (Glycine max), barnyardgrass (Echinochloa crus-galli), oilseed rape (Brassica napus), waterhemp (common waterhemp, Amaranthus rudis), oat, wild (wild oat, Avena fatua), kochia (Kochia scoparia), Surinam grass (Brachiaria decumbens), foxtail, green (green foxtail, Setaria viridis), goosegrass (Eleusine indica), bromegrass, downy (downy bromegrass, Bromus tectorum), nightshade (eastern black nightshade, Solanum ptycanthum), cocklebur (common cocklebur, Xanthium strumarium), cupgrass, woolly (woolly cupgrass, Eriochloa villosa), bermudagrass (Cynodon dactylon), sunflower, (common oilseed sunflower, Helianthus annuus), Russian thistle (Salsola kali), and velvetleaf (Abutilon theophrasti) were planted into a blend of loam soil and sand and treated preemergence with test chemicals formulated in a non-phytotoxic solvent mixture which included a surfactant.
(§2) At the same time, plants selected from these crop and weed species and also chickweed (common chickweed, Stellaria media), canarygrass (littleseed canarygrass, Phalaris minor), and deadnettle (henbit deadnettle, Lamium amplexicaule), were planted in pots containing Redi-Earth® planting medium (Scotts Company, 14111 Scottslawn Road, Marysville, Ohio 43041) comprising spaghnum peat moss, vermiculite, wetting agent and starter nutrients and treated with postemergence applications of test chemicals formulated in the same manner. Plants ranged in height from 2 to 18 cm (1- to 4-leaf stage) for postemergence treatments. Treated plants and controls were maintained in a greenhouse for 13 to 15 days, after which time all species were compared to controls and visually evaluated. Plant response ratings, summarized in Table C, are based on a scale of 0 to 100 where 0 is no effect and 100 is complete control. A dash (-) response means no test result.

[2] = test system: crabgrass, large; assay: Test C postemergence; format: in vivo, Digitaria sanguinalis
Text: as §1, §2

[3] = test system: oat, wild; assay: Test C postemergence; format: in vivo, Avena fatua
Text: as §1, §2

[4] = test system: galium; assay: Test C postemergence; format: in vivo, Galium aparine; conditions: for Plant response rating, Galium: postemergence
Text: as §1, §2

[5] = test system: blackgrass; assay: Test C postemergence; format: in vivo, Alopecurus myosuroides
Text: as §1, §2

[6] = test system: morningglory; assay: Test C postemergence; format: in vivo, Ipomoea coccinea
Text: as §1, §2

[7] = test system: wheat; assay: Test C postemergence; format: in vivo, Triticum aestivum
Text: as §1, §2

[8] = test system: kochia; assay: Test C postemergence; format: in vivo, Kochia scoparia
Text: as §1, §2

[9] = test system: lambsquarters; assay: Test C postemergence; format: in vivo, Chenopodium album
Text: as §1, §2

[10] = test system: chickweed; assay: Test C postemergence; format: in vivo, Stellaria media
Text: as §1, §2

[11] = test system: pigweed; assay: Test C postemergence; format: in vivo, Amaranthus retroflexus
Text: as §1, §2

[12] = test system: velvetleaf; assay: Test C postemergence; format: in vivo, Abutilon theophrasti
Text: as §1, §2

[13] = test system: waterhemp; assay: Test C postemergence; format: in vivo, Amaranthus rudis
Text: as §1, §2

[14] = test system: lambsquarters; assay: Test C preemergence; format: in vivo, Chenopodium album; conditions: for Lambsquarters plant response rating: preemergence
Text: as §1, §2

[15] = Postemergence, 31 g ai/ha, visually evaluated after 13 to 15 days
[16] = postemergence, 62 g ai/ha, scale 0 to 100
[17] = postemergence, 250 g ai/ha, scale 0 to 100 (0 no effect, 100 complete control)
[18] = postemergence, 125 g ai/ha, scale 0 to 100, 0 no effect, 100 complete control

With `CCc1cc(C(=O)NCC(F)(F)F)nn1Cc1ccnc(C(F)(F)F)c1` [Compound 78, 5-ethyl-N-(2,2,2-trifluoroethyl)-1-[[(2-trifluoromethyl)-4-pyridinyl]methyl]-1H-pyrazole-3-carboxamide] the “Plant response rating (scale of 0 to 100 where 0 is no effect and 100 is complete control), Barnyardgrass” value [1, 15] was 5, the “Barnyardgrass plant response rating” value [1, 16] was 15 and the “Plant response rating, Barnyardgrass” value [1, 17] was 80. The “Plant response rating, Barnyardgrass” value [1, 18] was 15, the “Plant response rating (scale of 0 to 100 where 0 is no effect and 100 is complete control), Crabgrass, Large” value [2, 15] was 15 and the “Crabgrass, Large plant response rating” value [2, 16] was 25. For the same compound, the “Plant response rating, Crabgrass, Large” value [2, 17] was 90, the “Plant response rating, Crabgrass, Large” value [2, 18] was 80 and the “Plant response rating (scale of 0 to 100 where 0 is no effect and 100 is complete control), Oat, Wild” value [3, 15] was 5. The “Oat, Wild plant response rating” value [3, 16] was 5, the “Plant response rating, Oat, Wild” value [3, 17] was 30 and the “Plant response rating, Oat, Wild” value [3, 18] was 10. The “Plant response rating (scale of 0 to 100 where 0 is no effect and 100 is complete control), Galium” value [4, 15] was 80, the “Plant response rating, Galium” value ([4]; 250 g ai/ha, scale 0 to 100 (0 no effect, 100 complete control)) was 80 and the “Plant response rating, Galium” value ([4]; 125 g ai/ha, scale 0 to 100, 0 no effect, 100 complete control) was 80. For the same compound, the “Plant response rating (scale of 0 to 100 where 0 is no effect and 100 is complete control), Blackgrass” value [5, 15] was 5, the “Blackgrass plant response rating” value [5, 16] was 5 and the “Plant response rating, Blackgrass” value [5, 17] was 50. The “Plant response rating, Blackgrass” value [5, 18] was 10, the “Plant response rating (scale of 0 to 100 where 0 is no effect and 100 is complete control), Morningglory” value [6, 15] was 70 and the “Morningglory plant response rating” value [6, 16] was 80. For the same compound, the “Plant response rating, Morningglory” value [6, 17] was 100, the “Plant response rating, Morningglory” value [6, 18] was 90 and the “Plant response rating (scale of 0 to 100 where 0 is no effect and 100 is complete control), Wheat” value [7, 15] was 5. For the same compound, the “Wheat plant response rating” value [7, 16] was 10, the “Plant response rating, Wheat” value [7, 17] was 35 and the “Plant response rating, Wheat” value [7, 18] was 10. For the same compound, the “Plant response rating (scale of 0 to 100 where 0 is no effect and 100 is complete control), Kochia” value [8, 15] was 85, the “Kochia plant response rating” value [8, 16] was 90 and the “Plant response rating, Kochia” value [8, 17] was 90. The “Plant response rating, Kochia” value [8, 18] was 90, the “Plant response rating (scale of 0 to 100 where 0 is no effect and 100 is complete control), Lambsquarters” value [9, 15] was 60 and the “Lambsquarters plant response rating” value [9, 16] was 75. For the same compound, the “Plant response rating, Lambsquarters” value [9, 17] was 98, the “Plant response rating, Lambsquarters” value [9, 18] was 95 and the “Plant response rating (scale of 0 to 100 where 0 is no effect and 100 is complete control), Chickweed” value [10, 15] was 65. The “Chickweed plant response rating” value [10, 16] was 80, the “Plant response rating, Chickweed” value [10, 17] was 85 and the “Plant response rating, Chickweed” value [10, 18] was 80. For the same compound, the “Plant response rating (scale of 0 to 100 where 0 is no effect and 100 is complete control), Pigweed” value [11, 15] was 40, the “Pigweed plant response rating” value [11, 16] was 75 and the “Plant response rating, Pigweed” value [11, 17] was 98. The “Plant response rating, Pigweed” value [11, 18] was 90, the “Plant response rating (scale of 0 to 100 where 0 is no effect and 100 is complete control), Velvetleaf” value [12, 15] was 15 and the “Velvetleaf plant response rating” value [12, 16] was 20. For the same compound, the “Plant response rating, Velvetleaf” value [12, 17] was 75, the “Plant response rating, Velvetleaf” value [12, 18] was 50 and the “Plant response rating (scale of 0 to 100 where 0 is no effect and 100 is complete control), Waterhemp” value [13, 15] was 50. The “Waterhemp plant response rating” value [13, 16] was 70, the “Plant response rating, Waterhemp” value [13, 17] was 95 and the “Plant response rating, Waterhemp” value [13, 18] was 80.
In the case of `CCONC(=O)c1cc(CC)n(Cc2cc(C(F)(F)F)no2)n1` [Compound 125], the “Plant response rating (scale of 0 to 100), Lambsquarters” value ([14]; Preemergence, 250 g ai/ha) is reported as 100, the “Lambsquarters plant response rating” value ([14]; 31 g ai/ha, visual rating, scale 0 to 100 (0 no effect, 100 complete control), 13 to 15 days) is reported as 15 and the “Lambsquarters plant response rating” value ([14]; 62 g ai/ha, scale 0 to 100 (0 no effect, 100 complete control), 13 to 15 days) is reported as 35. The “Lambsquarters plant response rating” value ([14]; 125 g ai/ha, scale 0 to 100, 0 is no effect, 100 is complete control) was 75.
